{"source": "patent US20250134952A1", "about": "“METHODS FOR IMPROVING THE EFFICACY OF HDAC INHIBITOR THERAPY AND PREDICTING THE RESPONSE TO TREATMENT WITH HDAC INHIBITOR” (INSTITUT NATIONAL DE LA SANTÉ ET DE LA RECHERCHE MÉDICALE, priority 2021, published 2025)", "tested_on": "GAL4UAS responsive luciferase reporter Hela stable cell line", "test": "GAL4UAS responsive luciferase reporter assay", "type": "cell-based", "conditions": "for reduction of luciferase activity by Tau4R overexpression: wild-type Tau4R transfected", "experimental": "(A) Representative confocal sections of MCF7shctrl and shTau cells untreated or treated with 100 nM TSA for 24 h. […] (B) Quantification of HP1α clusters per nuclei visualized as described previously and realized on three independent experiments. (C) GADD45a and (D) p21 (CDKN1a) expression in MCF7shctrl and shTau cells untreated or treated with 100 nM TSA for 24 h were analyzed by real-time PCR and normalized to RPLO. Results are expressed, relative to the basal activity set to 1, as the mean±SD of three independent assays. (E) Tau tethering prevents adjacent reporter gene activity induced by TSA. GAL4UAS responsive luciferase reporter Hela stable cell line was transfected with GAL4DBD (GAL4) or GAL4DBD-Tau4R and then, 24 h later, treated with TSA (600 nM) for 24 h. The luciferase activity was determined as described in the Materials and Methods. (F) Ectopic Tau4R expression prevents adjacent reporter gene activity induced by TSA. The GAL4UAS responsive luciferase reporter Hela stable cell line was transfected with a plasmid encoding Tau4R for 24 h. Then, cells were treated with an increasing concentration of TSA, as indicated for 24 h. The luciferase activity was determined as described in the Materials and Methods. Data are mean±SD **P<0.01***P<0.001 vs. control.\nSH-SY5Y human neuroblastoma cells expressing Tau4R tagged with the streptavidin-binding peptide (SBP) (referred as SH-SY5Y-(SBP)Tau4R) (Chauderlier et al., 2018), SH-SY5Y-Tet-on-Tau4R, Hela cells, MCF7 and MDA-MB-231 were cultured in Dulbecco's Modified Eagle's Medium with 10% fetal bovine serum, 2 mM L-glutamine and 50 U/ml penicillin/streptomycin (Gibco) at 37° C. in 5% CO2 humidified air. Transient and stable transfections experiments were performed using the lipofectamine 3000 reagent (Invitrogen). Transient luciferase assays were performed with the dual-luciferase assay system (Promega). For stable clones, luciferase activities were measured using the luciferase assay system (Promega) and normalized against protein concentration. To isolate stably transfected clones, Hela cells were transfected with the pGL4.31[luc2P/GAL4 UAS/Hygro](referred to as the GAL4UAS stable Hela cell line) and selected with hygromycin (200 μg/ml). Of 6 clones tested for reporter activity, one clone was chosen for further studies. MCF7 and MDA-MB-231 cells were transfected with short hairpin Tau or RNA Ctrl vectors and selected with puromycin ([…]). Clones were isolated and tested for Tau expression.\nTo directly probe how Tau prevents TSA-induced chromatin remodeling and gene expression, we next used Hela cells as they lack endogenous Tau. First, we generated a stable GAL4UAS-responsive luciferase reporter Hela clone that we subsequently selected for trichostatin-induced luciferase activity. In our preliminary experiments we found the lowest dose of TSA inducing maximal luciferase activity was 600 nM and we used this concentration in the following experiments. In addition, by performing salt extraction on nuclei, we found only Tau4R isoforms were tightly bound to chromatin and could potentially impact directly on chromatin structure (data not shown). We therefore targeted Tau4R to UAS responsive elements by fusing Tau4R to the heterologous DNA-binding domain GAL4 and transfected this plasmid into Hela stable clone. […] We next wondered if this effect was due to the tethering of Tau4R to the promoter or whether this was independent of Tau4R fusion to GAL4. […]", "data": [{"smiles": "CC(/C=C/C(=O)NO)=C\\[C@@H](C)C(=O)c1ccc(N(C)C)cc1", "note": "[TSA, 2,4-Heptadienamide, 7-[4-(dimethylamino)phenyl]-N-hydroxy-4,6-dimethyl-7-oxo-, (2E,4E,6R)-]", "values": [{"measurement": "reduction of luciferase activity by Tau4R overexpression", "setting": "100 nM TSA, 24 h", "value": "around 50%"}, {"measurement": "reduction of luciferase activity by Tau4R overexpression", "setting": "300 nM TSA, 24 h", "value": "around 50%"}, {"measurement": "reduction of luciferase activity by Tau4R overexpression", "setting": "600 nM TSA, 24 h", "value": "no reduction"}, {"measurement": "reduction of TSA-induced luciferase activity in the presence of GAL-Tau4R", "setting": "TSA 600 nM, 24 h, GAL4DBD-Tau4R transfected", "value": 50, "unit": "%"}, {"measurement": "lowest dose of TSA inducing maximal luciferase activity", "setting": "preliminary experiments, Hela stable clone", "value": 600, "unit": "nM"}]}]}
